Measured values: patent publication US9937151B2, “Carbapenem antibacterials with gram-negative activity” (priority 2010, dated 2018)
≈ marks a conversion by molar mass, not a printed value.

Test system: G(−) bacterial strains
Assay: Dilution antimicrobial susceptibility tests (MIC, NCCLS agar dilution / broth dilution)
Assay type: cell-based, Gram-negative organisms
Conditions: unit assumed
Description: The MIC (minimum inhibitory concentration) was determined by the NCCLS (National Committee for Clinical Laboratory Standards) methods 2000. Methods for dilution antimicrobial susceptibility testing for bacteria that growth aerobically (M7-A5, vol. 20, No. 2). The agar dilution method for determining antimicrobial susceptibility was carried out using Mueller-Hinton agar. A final inoculum of 10^4 CFU/spot was applied with an inoculation device. Broth dilution tests were performed with 5×10^5 CFU/well in 96 well plates. The susceptibilities of streptococci were determined by Mueller-Hinton agar supplemented with 5% sheep blood. All assays were run with the indicated control strains, available from the ATCC (American Type Culture Collection, Rockville, Md.).
Abbreviations used in Table 1 are defined as follows: Cf-R: Ceftazidime Resistance, Ci-R: Ciprofloxacin Resistance, Gen-R: Gentamycin Resistance, Imp-R: Imipenem Resistance, Mp-R: Meropenem Resistance, Ofx-R: Ofloxacin Resistance, B+: β-lactamase Production, AmpC: AmpC-lactamase Hyper production, CBPase: Carbapenemase Production.

[1] = strain #1 Acinetobacter calcoaceticus
[2] = strain #2 Acinetobacter baumannii, Cf-R, Ci-R
[3] = strain #3 Acinetobacter baumannii, Cf-R, Ci-R, Mp-I
[4] = strain #4 Acinetobacter baumannii, Cf-R, Imp-I, CBPase
[5] = strain #7 Enterobacter aerogenes
[6] = strain #8 Enterobacter cloacae, Cf-R, B+
[7] = strain #9 Enterobacter cloacae, Cf-R
[8] = strain #10 Escherichia coli, Ci-R
[9] = strain #11 Escherichia coli, Ci-R, AmpC
[10] = strain #15 Klebsiella pneumoniae
[11] = strain #16 Moraxella catarrhalis
[12] = strain #21 Providencia rettgeri
[13] = strain #22 Salmonella typhimurium
[14] = strain #25 Shigella dysenteriae
[15] = strain #28 Stenotrophomonas maltophilia
[16] = strain #29 Pseudomonas aeruginosa
[17] = strain #30 Pseudomonas aeruginosa
[18] = strain #31 Pseudomonas aeruginosa, Ofx-R
[19] = strain #32 Pseudomonas aeruginosa, Cf-R
[20] = strain #33 Pseudomonas aeruginosa, Ci-R
[21] = strain #34 Pseudomonas aeruginosa, Gen-R
[22] = strain #35 Pseudomonas aeruginosa, Ip-R
[23] = strain #36 Pseudomonas aeruginosa, Cf-R, Ci-R, Mp-R

Row | SMILES | MIC [1] [µg/mL] | MIC [2] [µg/mL] | MIC [3] [µg/mL] | MIC [4] [µg/mL] | MIC (strain #5 Citrobacter diversus) [µg/mL] | MIC (strain #6 Citrobacter freundii) [µg/mL] | MIC [5] [µg/mL] | MIC [6] [µg/mL] | MIC [7] [µg/mL] | MIC [8] [µg/mL] | MIC [9] [µg/mL] | MIC (strain #12 Escherichia coli) [µg/mL] | MIC (strain #13 Escherichia coli) [µg/mL] | MIC (strain #14 Klebsiella oxytoca) [µg/mL] | MIC [10] [µg/mL] | MIC [11] [µg/mL] | MIC (strain #17 Morganella Morganii) [µg/mL] | MIC (strain #18 Morganella Morganii) [µg/mL] | MIC (strain #19 Proteus vulgaris) [µg/mL] | MIC (strain #20 Proteus mirabilis) [µg/mL] | other results
1 | C[C@@H](O)C1C(=O)N2C(C(=O)[O-])=C(C[N+]3(C)CC[C@H](NC(=N)N)C3)[C@H](C)C12 (stereo partly drawn) [Compound 67] | 2 (≈ 5.47 µM) | 8 (≈ 21.9 µM) | 8 (≈ 21.9 µM) | 4 (≈ 10.9 µM) | 0.13 (≈ 0.356 µM) | 0.25 (≈ 0.684 µM) | 4 (≈ 10.9 µM) | 0.13 (≈ 0.356 µM) | 0.25 (≈ 0.684 µM) | 0.13 (≈ 0.356 µM) | 0.13 (≈ 0.356 µM) | 0.13 (≈ 0.356 µM) | 0.25 (≈ 0.684 µM) | 0.25 (≈ 0.684 µM) | 4 (≈ 10.9 µM) | 0.016 (≈ 0.0438 µM) | 16 (≈ 43.8 µM) | 16 (≈ 43.8 µM) | 16 (≈ 43.8 µM) | 0.25 (≈ 0.684 µM) | MIC [12]: 1 µg/mL (≈ 2.74 µM); MIC [13]: 0.25 µg/mL (≈ 0.684 µM); MIC (strain #23 Serratia marcescens): 0.5 µg/mL (≈ 1.37 µM); MIC (strain #24 Serratia marcescens): 0.5 µg/mL (≈ 1.37 µM); MIC [14]: 0.25 µg/mL (≈ 0.684 µM); MIC (strain #26 Shigella sonnei): 0.25 µg/mL (≈ 0.684 µM); MIC (strain #27 Shigella flexneri): 0.13 µg/mL (≈ 0.356 µM); MIC [15]: 2 µg/mL (≈ 5.47 µM); MIC [16]: 1 µg/mL (≈ 2.74 µM); MIC [17]: 2 µg/mL (≈ 5.47 µM); MIC [18]: 2 µg/mL (≈ 5.47 µM); MIC [19]: 2 µg/mL (≈ 5.47 µM); MIC [20]: 2 µg/mL (≈ 5.47 µM); MIC [21]: 2 µg/mL (≈ 5.47 µM); MIC [22]: 4 µg/mL (≈ 10.9 µM); MIC [23]: 16 µg/mL (≈ 43.8 µM)
2 | C[C@@H](O)C1C(=O)N2C(C(=O)O)=C(CN3CC[C@H](NS(N)(=O)=O)C3)[C@H](C)C12 (stereo partly drawn) [Compound 72] | 1 (≈ 2.57 µM) | 2 (≈ 5.15 µM) | 4 (≈ 10.3 µM) | 4 (≈ 10.3 µM) | 0.5 (≈ 1.29 µM) | 0.5 (≈ 1.29 µM) | 1 (≈ 2.57 µM) | 0.25 (≈ 0.644 µM) | 1 (≈ 2.57 µM) | 0.25 (≈ 0.644 µM) | 0.25 (≈ 0.644 µM) | 0.25 (≈ 0.644 µM) | 0.5 (≈ 1.29 µM) | 1 (≈ 2.57 µM) | 0.5 (≈ 1.29 µM) | 0.016 (≈ 0.0412 µM) | 4 (≈ 10.3 µM) | 4 (≈ 10.3 µM) | 2 (≈ 5.15 µM) | 0.5 (≈ 1.29 µM) | MIC [12]: 2 µg/mL (≈ 5.15 µM); MIC [13]: 0.5 µg/mL (≈ 1.29 µM); MIC (strain #23 Serratia marcescens): 1 µg/mL (≈ 2.57 µM); MIC (strain #24 Serratia marcescens): 1 µg/mL (≈ 2.57 µM); MIC [14]: 0.5 µg/mL (≈ 1.29 µM); MIC (strain #26 Shigella sonnei): 0.5 µg/mL (≈ 1.29 µM); MIC (strain #27 Shigella flexneri): 0.25 µg/mL (≈ 0.644 µM); MIC [15]: 0.5 µg/mL (≈ 1.29 µM); MIC [16]: 8 µg/mL (≈ 20.6 µM); MIC [17]: 8 µg/mL (≈ 20.6 µM); MIC [18]: 2 µg/mL (≈ 5.15 µM); MIC [19]: 4 µg/mL (≈ 10.3 µM); MIC [20]: 8 µg/mL (≈ 20.6 µM); MIC [21]: 8 µg/mL (≈ 20.6 µM); MIC [22]: 8 µg/mL (≈ 20.6 µM); MIC [23]: 32 µg/mL (≈ 82.4 µM)
